In publication PMC12752627, “Discovery of a Potent and Selective TEAD Degrader with Durable Degradation Activity” (Advanced Science, 2025):

System: 867 cancer cell lines
Assay: PRISM assay (barcoded cell line screening, 5 days);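 further: top test concentration 10 mM in eight-point dilution series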
Type: cell-based
Set-up: KG-FP-003-AUC: scale not given here
Procedure: The principle of the PRISM assay has been described elsewhere and was conducted as previously outlined by the PRISM team at the Broad Institute.^[ [14], [31] ^] In PRISM (MTS027) experiments, KG‐FP‐003 was tested across 867 different cancer cell lines. Cells were treated with eight concentration gradients, ranging from 4.6 nM to […], in triplicate dilutions over a period of five days. Each plate was treated with 20 µM bortezomib as a positive control and DMSO as a negative control. Three replicate experiments were performed for each compound. The resulting data were analyzed using GraphPad PRISM 9.5.

`CNC(=O)c1cc2c(c(F)c1-c1c(Cl)c(F)cc3c1C[C@@](CN[C@H]1CC[C@H](C(=O)N4CCC(CC5CCN(C(=O)COc6ccc(N7CCC(=O)NC7=O)c(C)c6)CC5)CC4)CC1)(c1ccccc1)O3)[C@@H](O)[C@@H](C)C2` [KG-FP-003] gave a KG-FP-003-AUC (42MGBA_CENTRAL_NERVOUS_SYSTEM ACH-000323 PR500) of 0.75, a KG-FP-003-AUC (639V_URINARY_TRACT ACH-000973 PR500) of 0.67 and a KG-FP-003-AUC (647V_URINARY_TRACT ACH-000896 PR500) of 0.66. It also gave a KG-FP-003-AUC (697_HAEMATOPOIETIC_AND_LYMPHOID_TISSUE ACH-000070 PR300) of 0.90, a KG-FP-003-AUC (769P_KIDNEY ACH-000411 PR500) of 0.78 and a KG-FP-003-AUC (786O_KIDNEY ACH-000649 PR500) of 0.96. For the same molecule, the KG-FP-003-AUC (5637_URINARY_TRACT ACH-000905 PR500) was 0.63, the KG-FP-003-AUC (8305C_THYROID ACH-001306 PR500) was 0.73 and the KG-FP-003-AUC (8505C_THYROID ACH-001307 PR500) was 0.68. The KG-FP-003-AUC (CBAGPN_BONE ACH-001022 PR300) was 0.91, the KG-FP-003-AUC (CCFSTTG1_CENTRAL_NERVOUS_SYSTEM ACH-000329 PR500) was 1.00 and the KG-FP-003-AUC (CCK81_LARGE_INTESTINE ACH-000963 PR300) was 1.00. It also gave a KG-FP-003-AUC (CCLFPEDS0003T_SOFT_TISSUE ACH-001164 PR300) of 1.00, a KG-FP-003-AUC (CCLP1_BILIARY_TRACT ACH-001959 PR300) of 0.63 and a KG-FP-003-AUC (CCSW1_BILIARY_TRACT ACH-001960 PR300) of 0.99. The KG-FP-003-AUC (CFPAC1_PANCREAS ACH-000138 PR500) was 0.95, the KG-FP-003-AUC (CH157MN_CENTRAL_NERVOUS_SYSTEM ACH-000025 PR300) was 0.77 and the KG-FP-003-AUC (CHAGOK1_LUNG ACH-000867 PR300) was 0.78. For the same molecule, the KG-FP-003-AUC (CHL1_SKIN ACH-001024 PR500) was 1.00, the KG-FP-003-AUC (CHLA06ATRT_SOFT_TISSUE ACH-001028 PR300) was 0.99 and the KG-FP-003-AUC (CHLA10_BONE ACH-001029 PR300) was 0.99. For the same molecule, the KG-FP-003-AUC (CHLA15_AUTONOMIC_GANGLIA ACH-001300 PR300) was 0.98, the KG-FP-003-AUC (CHLA57_BONE ACH-001033 PR300) was 0.75 and the KG-FP-003-AUC (CHLA200_CENTRAL_NERVOUS_SYSTEM ACH-001293 PR300) was 0.99. For the same molecule, the KG-FP-003-AUC (CJM_SKIN ACH-000458 PR500) was 0.54, the KG-FP-003-AUC (CL11_LARGE_INTESTINE ACH-000249 PR300) was 1.00 and the KG-FP-003-AUC (CL34_LARGE_INTESTINE ACH-000895 PR500) was 0.99. It also gave a KG-FP-003-AUC (CMLT1_HAEMATOPOIETIC_AND_LYMPHOID_TISSUE ACH-000920 PR300) of 0.82, a KG-FP-003-AUC (COGAR359_SOFT_TISSUE ACH-001289 PR300) of 0.62 and a KG-FP-003-AUC (COGE352_BONE ACH-001038 PR300) of 0.85. The KG-FP-003-AUC (COGN278_AUTONOMIC_GANGLIA ACH-001301 PR300) was 1.00, the KG-FP-003-AUC (COLO320_LARGE_INTESTINE ACH-000202 PR300) was 0.97 and the KG-FP-003-AUC (COLO668_LUNG ACH-000803 PR500) was 1.00. It also gave a KG-FP-003-AUC (COLO679_SKIN ACH-000805 PR500) of 0.97, a KG-FP-003-AUC (COLO680N_OESOPHAGUS ACH-000717 PR500) of 0.91 and a KG-FP-003-AUC (COLO741_SKIN ACH-000582 PR500) of 1.00. For the same molecule, the KG-FP-003-AUC (COLO783_SKIN ACH-000812 PR500) was 0.85, the KG-FP-003-AUC (COLO792_SKIN ACH-000968 PR500) was 0.98 and the KG-FP-003-AUC (COLO800_SKIN ACH-000401 PR500) was 0.99. For the same molecule, the KG-FP-003-AUC (CORL23_LUNG ACH-000662 PR500) was 0.99, the KG-FP-003-AUC (CORL88_LUNG ACH-000508 PR300) was 0.94 and the KG-FP-003-AUC (CORL105_LUNG ACH-000161 PR500) was 0.95. It also gave a KG-FP-003-AUC (CORL279_LUNG ACH-000257 PR300) of 0.80, a KG-FP-003-AUC (COV318_OVARY ACH-000256 PR300) of 0.82 and a KG-FP-003-AUC (COV362_OVARY ACH-000278 PR500) of 0.94. It also gave a KG-FP-003-AUC (COV434_OVARY ACH-000123 PR500) of 0.90, a KG-FP-003-AUC (COV644_OVARY ACH-000608 PR300) of 0.68 and a KG-FP-003-AUC (CW2_LARGE_INTESTINE ACH-000998 PR300) of 1.00. For the same molecule, the KG-FP-003-AUC (CW9019_SOFT_TISSUE ACH-001050 PR300) was 0.68, the “PRISM AUC” value (Cell line: A172, 5 days) was 0.43 and the “PRISM AUC” value (Cell line: ES2, 5 days) was 0.62. For the same molecule, the “PRISM AUC” value (Cell line: HOS, 5 days) was 0.53 and the “PRISM AUC” value (Cell line: KLE, 5 days) was 0.53.
